We go through 22 compounds from ChEMBL document CHEMBL5050844 (2019).

pIC50: −log10 of the molar value.

Assay [1] in a line: Induction of anti-CD3/CD28 antibodies-stimulated human T cell activation at 1 uM assessed fold increase in IL-2 secretion measured by ELISA assay. Format: functional, T cell line. (An ELISA detects its analyte on a solid surface through an enzyme-linked reagent.)
For assay [2], the target named is E3 ubiquitin-protein ligase CBL-B (Homo sapiens, UniProt Q13191). As to the kind of experiment: Inhibition of N-terminal Avi-tagged human CBL-B (36 to 427 residues) incubated with 60 nM Src kinase for 1.5 hrs followed by incubation with fluorescently labeled UbcH5B-Ub for 1 hr and measured by TR-FRET assay. Format: single protein. In general terms: TR-FRET usually uses a lanthanide donor and a delayed reading to cut background.
Chain of E3 ubiquitin-protein ligase CBL-B (Q13191 whole entry, the tested form may be a part): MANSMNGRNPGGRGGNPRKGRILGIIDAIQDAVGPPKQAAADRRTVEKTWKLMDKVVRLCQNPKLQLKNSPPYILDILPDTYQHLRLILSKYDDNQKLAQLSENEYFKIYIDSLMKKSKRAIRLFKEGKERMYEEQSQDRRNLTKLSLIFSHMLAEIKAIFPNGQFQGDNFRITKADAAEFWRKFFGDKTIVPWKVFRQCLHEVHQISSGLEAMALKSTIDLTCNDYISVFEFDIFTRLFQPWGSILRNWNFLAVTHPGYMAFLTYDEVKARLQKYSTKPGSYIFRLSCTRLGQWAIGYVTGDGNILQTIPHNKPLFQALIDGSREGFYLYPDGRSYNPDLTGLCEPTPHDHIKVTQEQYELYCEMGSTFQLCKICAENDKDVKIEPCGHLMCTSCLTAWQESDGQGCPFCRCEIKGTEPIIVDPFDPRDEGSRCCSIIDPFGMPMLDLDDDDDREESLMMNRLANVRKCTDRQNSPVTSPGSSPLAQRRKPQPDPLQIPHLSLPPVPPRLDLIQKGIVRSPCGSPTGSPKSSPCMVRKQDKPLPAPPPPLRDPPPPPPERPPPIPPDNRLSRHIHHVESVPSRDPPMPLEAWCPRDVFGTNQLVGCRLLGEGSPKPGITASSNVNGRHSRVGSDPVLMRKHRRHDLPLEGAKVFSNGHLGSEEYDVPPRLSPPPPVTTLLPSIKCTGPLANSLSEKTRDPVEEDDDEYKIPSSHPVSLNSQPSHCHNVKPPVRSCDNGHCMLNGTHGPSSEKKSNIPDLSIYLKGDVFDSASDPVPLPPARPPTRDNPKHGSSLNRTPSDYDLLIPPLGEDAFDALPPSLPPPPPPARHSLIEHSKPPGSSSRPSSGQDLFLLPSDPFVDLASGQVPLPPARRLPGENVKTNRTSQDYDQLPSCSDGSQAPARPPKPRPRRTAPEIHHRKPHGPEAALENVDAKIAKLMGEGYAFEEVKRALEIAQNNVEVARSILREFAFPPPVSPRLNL

Assay [3] in a line: Induction of anti-CD3 antibodies-stimulated human T cell activation at 1 uM assessed fold increase in IL-2 secretion measured by ELISA assay. Also: reference of the scale not given here. Format: functional, T cell line.
Assay [4] can be described thus: Induction of anti-CD3/CD28 antibodies-stimulated human T cell activation at 1 uM assessed fold increase in CD25 expression measured by ELISA assay. Format: functional, T cell line.
Assay [5] in a line: Induction of anti-CD3 antibodies-stimulated human T cell activation at 1 uM assessed fold increase in CD25 expression measured by ELISA assay. Also: reference of the scale not given here. Format: functional, T cell line.
Assay [6] is described as follows: Induction of anti-CD3/CD28 antibodies-stimulated human T cell activation at 0.3 uM assessed fold increase in IL-2 secretion measured by ELISA assay. Format: functional, T cell line.
The nature of assay [7]: Induction of anti-CD3/CD28 antibodies-stimulated human T cell activation at 0.3 uM assessed fold increase in CD25 expression measured by ELISA assay. Format: functional, T cell line.

Regarding `Cn1cnnc1CC1(c2cccc(N3Cc4c(cc(C5=CCOC5)cc4C(F)(F)F)C3=O)c2)COC1`, the “fold change (FC)” value in assay [1] was 2.51; in assay [3] it was 0.101; in assay [4] it was 1.31; in assay [5], 0.801; in assay [6], 2.51; in assay [7], 1.01. The same compound gave a pIC50 in assay [2] of over 7.00.
With `Cn1cnnc1[C@H](F)C1(c2cccc(N3Cc4c(cc(CN5CCCCC5)cc4C(F)(F)F)C3=O)c2)COC1`, the “fold change (FC)” value in assay [1] is “>=7.5”; in assay [3], “>=0.201”; in assay [4], 1.01; in assay [5], “>=1.001”; in assay [6], “>=7.5”; in assay [7], 1.01. Also, in assay [2], the pIC50 is over 7.00.
In the case of `Cn1cnnc1CC1(c2cccc(NC(=O)c3cc(CN4C[C@H]5C[C@H]5C4)cc(C4CC4)n3)c2)COC1`, the “fold change (FC)” value is listed as “>=7.5” in assay [1]; “>=0.201” in assay [3]; 1.31 in assay [4]; “>=1.001” in assay [5]; “>=7.5” in assay [6]; 1.31 in assay [7]. The compound also had a pIC50 in assay [2] of over 7.00.
As to `Cn1cc2c(n1)CCCN2Cc1cc2c(c(C(F)(F)F)c1)CN(c1cccc(C3(Cc4nncn4C)COC3)c1)C2=O`, the “fold change (FC)” value in assay [1] is on record as “>=7.5”; in assay [3] it was “>=0.201”; in assay [4], 1.31; in assay [5], “>=1.001”; in assay [6], 5; in assay [7], 1.01. Besides, the pIC50 in assay [2] was over 7.00.
With `C[C@@H]1CCN(Cc2cc3c(c(C(F)(F)F)c2)CN(c2cccc(C4(Cc5nncn5C)COC4)c2)C3=O)C[C@H]1F` (relative stereo), the “fold change (FC)” value is “>=7.5” in assay [1]; “>=0.201” in assay [3]; 1.51 in assay [4]; “>=1.001” in assay [5]; “>=7.5” in assay [6]; 1.31 in assay [7]. Moreover, in assay [2], the pIC50 is over 7.00.
On to `CO[C@@H]1CCN(Cc2cc3c(c(C(F)(F)F)c2)CN(c2cccc(C4(Cc5nncn5C)COC4)c2)C3=O)C[C@@H]1F` (relative stereo), for which the “fold change (FC)” value in assay [1] was “>=7.5”; in assay [3], “>=0.201”; in assay [4], 1.31; in assay [5], “>=1.001”; in assay [6], “>=7.5”; in assay [7] it was 1.31. Also, the pIC50 in assay [2] was over 7.00.
For `CC1CCN(Cc2cc3c(c(C(F)(F)F)c2)CN(c2cccc(C4(Cc5nncn5C)COC4)c2)C3=O)CC1(F)F` (centres undefined), the “fold change (FC)” value in assay [1] is listed as “>=7.5”; in assay [3] it was “>=0.201”; in assay [4] it was 1.31; in assay [5], “>=1.001”; in assay [6], “>=7.5”; in assay [7], 1.31. This compound also showed a pIC50 in assay [2] of over 7.00.
On to `C[C@H](c1cc2c(c(C(F)(F)F)c1)CN(c1cccc(C3(Cc4nncn4C)COC3)c1)C2=O)N1CCC2(CC1)CC2`, for which the “fold change (FC)” value in assay [1] is given as “>=7.5”; in assay [3] it was “>=0.201”; in assay [4], 1.01; in assay [5], “>=1.001”; in assay [6] it was “>=7.5”; in assay [7] it was 1.01. For the same compound, in assay [2], the pIC50 is over 7.00.
On to `CC1CN(c2cc3c(c(C(F)(F)F)c2)CN(c2cccc(C4(Cc5nncn5C)COC4)c2)C3=O)C1`, for which the “fold change (FC)” value in assay [1] is 2.51; in assay [3], 0.101; in assay [4] it was 1.01; in assay [5], 0.601; in assay [6], 1.01; in assay [7], 1.01. The negative-log IC50 (pIC50) in assay [2] was over 7.00.
`Cn1cnnc1CC1(c2cccc(N3Cc4c(cc(CN5CC[C@H]6C[C@H]65)cc4C(F)(F)F)C3=O)c2)COC1`: the “fold change (FC)” value in assay [1] is “>=7.5”; in assay [3], “>=0.201”; in assay [4], 1.51; in assay [5], “>=1.001”; in assay [6], “>=7.5”; in assay [7], 1.51. The pIC50 in assay [2] is over 7.00.
On to `Cn1cnnc1CC1(c2cccc(NC(=O)c3cc(CN4CC[C@H](F)C4)nc(C(F)(F)F)n3)c2)COC1`, for which the “fold change (FC)” value worked out at 2.51 in assay [1]; 0.051 in assay [3]; 1.01 in assay [4]; 0.801 in assay [5]; 1.01 in assay [6]; 1.01 in assay [7]. The compound also had a pIC50 in assay [2] of over 7.00.
Consider `Cn1cnnc1CC1(c2cccc(NC(=O)c3cc(CN4CCC5CC54)cc(C4CC4)n3)c2)COC1` (centres undefined), for which the “fold change (FC)” value in assay [1] was “>=7.5”; in assay [3], “>=0.201”; in assay [4], 1.31; in assay [5] it was “>=1.001”; in assay [6] it was “>=7.5”; in assay [7] it was 1.31. The compound further showed a pIC50 in assay [2] of over 7.00.
In the case of `CC(c1cc2c(c(C3CC3)n1)CN(c1cccc(C3(Cc4nncn4C)COC3)c1)C2=O)N1CCCC1` (centres undefined), the “fold change (FC)” value in assay [1] was 2.51; in assay [3], “<=0.05”; in assay [4], 1.01; in assay [5], 0.601; in assay [6], 1.01; in assay [7] it was 1.01. The pIC50 in assay [2] was over 7.00.
In the case of `Cn1cnnc1CC1(c2cccc(N3Cc4c(cc(C5=CCCOC5)cc4C(F)(F)F)C3=O)c2)COC1`, the FC is 2.51 in assay [1]; 0.101 in assay [3]; 1.01 in assay [4]; 0.801 in assay [5]; 2.51 in assay [6]; 1.01 in assay [7]. The compound also had a pIC50 in assay [2] of over 7.00.
As to `Cn1cnnc1CC1(c2cccc(NC(=O)c3cc(CN4CCCCC4)nc(C4CC4)n3)c2)COC1`, the “fold change (FC)” value is “>=7.5” in assay [1]; “>=0.201” in assay [3]; “>=1.76” in assay [4]; “>=1.001” in assay [5]; “>=7.5” in assay [6]; “>=1.76” in assay [7]. The compound also showed a pIC50 in assay [2] of over 7.00.
For `CC(c1cc2c(c(C3CC3)n1)CN(c1cccc(C3(Cc4nncn4C)COC3)c1)C2=O)N1CCCCC1` (centres undefined), the “fold change (FC)” value in assay [1] is “>=7.5”; in assay [3] it was “>=0.201”; in assay [4], “>=1.76”; in assay [5] it was 0.601; in assay [6] it was 5; in assay [7], “>=1.76”. This compound also had a pIC50 in assay [2] of over 7.00.
In the case of `Cn1cnnc1[C@H](F)C1(c2cccc(N3Cc4c(cc(CN5CCCC5)cc4C(F)(F)F)C3=O)c2)COC1`, the “fold change (FC)” value in assay [1] is on record as “>=7.5”; in assay [3], “>=0.201”; in assay [4], 1.31; in assay [5], “>=1.001”; in assay [6], “>=7.5”; in assay [7], 1.31. This compound also showed a pIC50 in assay [2] of over 7.00.
For `Cn1cnnc1CC1(c2cccc(N3Cc4c(cc(CN5CCCC(F)(F)C5)cc4C(F)(F)F)C3=O)c2)COC1`, the “fold change (FC)” value in assay [1] was “>=7.5”; in assay [3], “>=0.201”; in assay [4] it was 1.51; in assay [5], “>=1.001”; in assay [6], “>=7.5”; in assay [7] it was 1.51. The pIC50 in assay [2] was over 7.00.
In the case of `Cn1cnnc1CC1(c2cccc(N3Cc4c(cc(CN5CC[C@@H]6C[C@@H]65)cc4C(F)(F)F)C3=O)c2)COC1`, the “fold change (FC)” value in assay [1] is on record as “>=7.5”; in assay [3], “>=0.201”; in assay [4], 1.51; in assay [5] it was “>=1.001”; in assay [6] it was “>=7.5”; in assay [7], 1.51. The compound also showed a pIC50 in assay [2] of over 7.00.
As to `Cn1cnnc1CC1(c2cccc(N3Cc4c(cc(N5CC(C(F)F)C5)nc4C4CC4)C3=O)c2)COC1`, the “fold change (FC)” value in assay [1] is on record as 5; in assay [3], 0.101; in assay [4] it was 1.01; in assay [5], 0.801; in assay [6], 2.51; in assay [7], 1.01. Besides, the pIC50 in assay [2] was over 7.00.
As for `Cn1cnnc1CC1(c2cccc(N3Cc4c(cc(CN5CC6C(C5)C6(F)F)cc4C(F)(F)F)C3=O)c2)COC1` (centres undefined), the “fold change (FC)” value in assay [1] was “>=7.5”; in assay [3], “>=0.201”; in assay [4] it was 1.31; in assay [5] it was “>=1.001”; in assay [6], 5; in assay [7], 1.31. This compound showed a negative logarithm of the IC50 (pIC50) in assay [2] of over 7.00.
With `C[C@@H]1CN(C)CCN1c1cc2c(c(C(F)(F)F)c1)CN(c1cccc(C3(Cc4nncn4C)COC3)c1)C2=O`, the “fold change (FC)” value in assay [1] is “>=7.5”; in assay [3] it was 0.151; in assay [4], 1.31; in assay [5] it was “>=1.001”; in assay [6], 2.51; in assay [7] it was 1.01. For the same compound, the pIC50 in assay [2] was over 7.00.

As usually defined, the pIC50 is the IC50 on a negative log10 scale, so that one unit is a factor of ten. Low values mean a large IC50, high ones a small IC50.
